Experimental data: PubChem BioAssay (NCI)
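Protocol summary: plate cells (96-well), add compound at 5 concentrations, incubate 48 h, interpolate endpoints linearly. GI50 is the concentration that inhibits growth by half. At the TGI there is no net growth.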

Assays:
Assay in all cases: inhibition of tumour cell growth, NCI panel, 48 h
NCI-H460 lung = system: NCI-H460 lung
SK-MEL-2 melanoma = system: SK-MEL-2 melanoma
HCT-15 colon = system: HCT-15 colon
CAKI-1 renal = system: CAKI-1 renal
HCC-2998 colon = system: HCC-2998 colon
TK-10 renal = system: TK-10 renal
SR leukemia = system: SR leukemia
HCT-116 colon = system: HCT-116 colon
LOX IMVI melanoma = system: LOX IMVI melanoma
NCI/ADR-RES ovarian = system: NCI/ADR-RES ovarian

SMILES	TGI (NCI-H460 lung) [µM]	TGI (SK-MEL-2 melanoma) [µM]	TGI (HCT-15 colon) [µM]	TGI (CAKI-1 renal) [µM]	TGI (HCC-2998 colon) [µM]	TGI (TK-10 renal) [µM]	TGI (SR leukemia) [µM]	TGI (HCT-116 colon) [µM]	TGI (LOX IMVI melanoma) [µM]	GI50 (NCI-H460 lung) [µM]	TGI (NCI/ADR-RES ovarian) [µM]	GI50 (HCT-116 colon) [µM]	GI50 (SK-MEL-2 melanoma) [µM]	GI50 (NCI/ADR-RES ovarian) [µM]	GI50 (HCT-15 colon) [µM]	GI50 (TK-10 renal) [µM]	GI50 (LOX IMVI melanoma) [µM]	GI50 (CAKI-1 renal) [µM]	GI50 (HCC-2998 colon) [µM]
COC(=O)/C=C1/CCC(C(=O)OC)N1 (stereo unspecified)	> 100	> 100	> 100	> 100	> 100	> 100	> 100	> 100	> 100	–	–	–	–	–	–	–	–	–	–
CC1CCC2(CC1)NN=c1s/c(=C\c3ccc(O)cc3)c(=O)n1N2 (stereo unspecified)	> 100	–	–	–	> 100	> 100	–	> 100	> 100	–	–	–	–	–	–	–	–	–	–
COCCCNC(=O)C1C(=O)N(CCCOC)C(=O)/C1=N\N (stereo unspecified)	> 100	> 100	> 100	–	> 100	> 100	–	> 100	–	–	–	–	–	–	–	–	–	–	–
C#Cc1cccc(N2C(=O)CCC2=O)c1	71.7	36.6	50	29	29.5	29.9	4.74	23.1	32	–	–	–	–	–	–	–	–	–	–
CCOC(=O)C1N(S(=O)(=O)c2ccc(C)cc2)CCC12c1ccccc1N(C(C)=O)C2c1ccc(OC)c(OC)c1 (stereo unspecified)	> 100	–	–	> 100	> 100	> 100	–	> 100	> 100	–	–	–	–	–	–	–	–	–	–
COc1ccc(-c2cc(=O)c3ccc(C)nc3[nH]2)cc1	> 100	> 100	> 100	> 100	> 100	> 100	–	> 100	> 100	> 100	> 100	> 100	–	–	–	–	–	–	–
CN(C)CCCNC(=O)c1cc(NC(=O)c2cc(NC(=O)CCc3c[nH]c4ccccc34)cn2C)cn1C	> 100	> 100	> 100	–	–	> 100	–	–	> 100	> 100	> 100	–	> 100	> 100	> 100	> 100	> 100	–	–
Cc1cc(S(=O)(=O)Nc2nc3cscc3c(=O)n2Cc2ccccc2)c(S)cc1Cl	> 100	–	> 100	> 100	68.5	> 100	–	> 100	51.6	28.8	> 100	27.5	–	53.4	56.8	35	23.2	45.4	18.9
COc1ccc(Nc2nc3ccc(C(F)(F)F)cc3nc2-c2ccccc2)cc1OC	37.1	> 100	> 100	86.1	41.3	–	> 100	> 100	31.6	–	–	–	–	–	–	–	–	–	–
CC(C)CC(NC(=O)c1cccc(O)c1O)C(=O)NCc1cc(CNC(=O)C(CC(C)C)NC(=O)c2cccc(O)c2O)cc(CNC(=O)C(CC(C)C)NC(=O)c2cccc(O)c2O)c1 (stereo unspecified)	> 100	29	> 100	> 100	20.6	> 100	32.2	38.4	25.6	–	–	–	–	–	–	–	–	–	–
COc1ccc2c(c1)N1CCc3cc(OC)c(OC)cc3C1C2 (stereo unspecified)	> 100	> 100	–	> 100	> 100	> 100	> 100	–	> 100	–	–	–	–	–	–	–	–	–	–
COc1cc(NC(N)=NCCC(C)(C)Oc2ccc(C(F)(F)F)cc2)ncc1C#N	3.39	3.27	3.07	2.9	3.01	2.91	–	2.83	3.01	1.72	3.24	1.46	1.79	1.66	1.65	1.54	1.6	1.55	1.58
CN(C)CC(C)(C)C(=O)/C=C/c1ccc(/C=C/C(=O)C(C)(C)CN(C)C)cc1	13.9	–	5.49	2.9	3.04	3.03	5.45	2.55	1.69	–	–	–	–	–	–	–	–	–	–
Clc1ccc(SC(/C=C/NNC2=NC(c3ccccc3)C(c3ccccc3)=NN2)c2ccccc2)cc1 (stereo unspecified)	> 100	40.7	> 100	54.1	44.3	> 100	–	92	65.7	–	–	–	–	–	–	–	–	–	–
CCCCCC[N+](C)(C)Cc1ccc(C[N+](C)(C)CCCCCC)cc1	6.03	5.15	23.7	14.6	27.9	24.3	5.08	12.8	–	–	–	–	–	–	–	–	–	–	–
C=C1C(=O)O[C@@H]2C[C@@H](C)[C@@H]3C=CC(=O)[C@@]3(C)[C@@H](OC(=O)CC(=O)O[C@H]3[C@@H]4C(=C)C(=O)O[C@@H]4C[C@@H](C)[C@@H]4C=CC(=O)[C@]43C)[C@H]12	0.361	0.224	0.0773	0.111	0.303	0.47	0.0548	0.0398	0.069	–	–	–	–	–	–	–	–	–	–
CCC[CH2][Sn]([CH2]CCC)([CH2]CCC)[O]c1ccc(Cl)cc1Cl	0.25	0.295	0.333	0.258	0.226	0.61	–	0.231	0.253	0.0977	0.312	0.0952	0.152	0.141	0.156	0.215	0.111	0.0878	0.0949
O=c1nc(/C=C/c2ccccc2Cl)cc2n1CCN2CCO	> 100	> 100	> 100	> 100	–	> 100	> 100	> 100	> 100	–	–	–	–	–	–	–	–	–	–
COc1ccc2c(c1)C(=O)c1c-2n(CCCN=[N+]=[N-])c(=O)c2cc(OC)c(OC)cc12	> 100	> 100	> 100	24.6	> 100	72.1	–	> 100	> 100	7.99	> 100	27.8	> 100	80.1	> 100	19.5	25.1	3.82	13.7
O=C1c2ccccc2C(Br)(Br)c2ccccc21	> 31.6	> 31.6	> 31.6	–	> 31.6	> 100	> 31.6	> 31.6	> 31.6	–	–	–	–	–	–	–	–	–	–
